According to patent publication US10758609B2, “Cross-reactive T-cell epitopes of HIV, SIV, and FIV for vaccines in humans and cats” (priority 2015, dated 2020):

What was measured:
[1] = test system: PBMC from FIV-vaccinated cats; assay: Feline IL2 ELISpot of PBMC from vaccinated cats; assay type: cell-based, cat; settings: FIV peptides
Procedure: (§1) IFNγ and IL2 ELISpot analyses were performed using feline IFNγ ELISpot and feline IL2 ELISpot kits (R&D Systems, Cat# SEL764 and SEL1890) as described. The threshold is defined as ≥50 spot forming units (SFU) per 1×10^6 PBMC when counted with MVS ELISpot Reader (MVS Pacific, LLC). Each result is an average of the duplicate samples after subtraction of the average value of the media controls.
(§2) Concurrently, the overlapping peptide pools of FIV structural/enzyme proteins were used to stimulate PBMC and T cells from FIV-vaccinated cats. These cats were vaccinated with prototype dual-subtype FIV vaccine which was the prototype to our commercial FIV vaccine (Coleman et al., 2014). The feline assays (Example 1) equivalent to those of human assays (Sanou et al., 2013; Roff et al., 2015) were used except for ICS analysis. In place of ICS for cytolysin/cytotoxins, IL2 ELISpot analysis was performed. […] The results for FIV-vaccinated cats included IFNγ and IL2 productions and CD3^+CD4+ and CD3^+CD8^+ T-cell proliferation (Table 9, the second set of results).
(§3) The feline IFNγ and L2 ELISpot analyses of PBMC to FIV MAPs and peptides were performed as previously described (Abbott et al. (2012)) using feline IFNγ modular kit (R&D Systems, Minneapolis, Minn.) and feline IL2 modular kit (R&D Systems). All results shown in the figures (FIGS. 8A-1, 8B-1, 8A-2, 8B-2, 8A-3, 8B-3) are after subtracting the average value of the results from all control cats.
(§4) The second parameter evaluated was the ability of the peripheral blood mononuclear cells (PBMC) from vaccinated and control cats to produce IL2 and interferon-γ (IFNγ) proteins in responses to FIV MAPs and peptides (FIGS. 8A-1, 8A-2, 8A-3, 8B-1, 8B-2, 8B-3) using feline IL2 and IFNγ ELISpot assays (Aranyos et al. (2016); Abbott et al. (2012)). IL2 enhances the proliferation of FIV-specific CD4^+ T cells and CD8^+ T cells. IFNγ is known enhance the FIV-specific CTL activities in vaccinated cats (Abbas et al. (2015)).

[2] = test system: FIVFC1; assay: FIV enhancement and suppression (E/S) analysis of in vitro FIV infection of feline PBMC; assay type: cell-based, feline immunodeficiency virus; settings: FIV peptides; in vitro FIV infection of uninfected cat PBMC
Procedure: FIV viral enhancement or suppression was determined using a 48-well modification of the method described for detecting FIV enhancing activity of IFNγ and FIV suppressive activity of IFNα [37]. […] MAP1c contained four branched chains of peptide Fp4-3. T-cell mitogen concanavalin A (ConA) at 4 μg/mL was used as an infection enhancing control. Six hours after the culturing with peptide, MAP, or ConA, varying dilutions of FIVFC1 were added to the wells. Seventy-two hours later the cells were re-cultured in fresh culture media with ConA-stimulated autologous PBMC (0.25-0.5×10^6) using the same amount of corresponding peptide, MAP, ConA or media. On Day 7, 10, and 13 of culture, 0.5 mL of culture fluid was collected and 0.5 mL of fresh media added to maintain a consistent volume. The harvested culture samples were analyzed for FIV titer using the previously described RT assay. The results are shown as the end-point dilution titer from two studies using PBMC from different SPF donors.
Statistical analysis. The statistically significant differences between the end-point dilution titers of the peptide or MAP culture samples and either the virus control samples or specific MAP culture samples were calculated using a paired Student t-test with a two-tailed distribution (SigmaPlot version 11.0). Statistical comparisons between pre and post-vaccination(s) were similarly performed. The comparison was considered statistically significant when p<0.05.

[3] = test system: PBMC from FIV-vaccinated cats; assay: Feline IFNγ ELISpot of PBMC from vaccinated cats; assay type: cell-based, cat; settings: FIV peptides; FIV-vaccinated cats (prototype dual-subtype vaccine)
Procedure: as §1, §2, §3, §4

[4] = test system: feline CD3^+CD8^+ T cells; assay: CFSE-based feline CD3+CD8+ T-cell proliferation; parameters: species or system cat; settings: FIV peptides; FIV-vaccinated cats
Procedure: (§5) Carboxyfluorescein diacetate succinimide ester (CFSE)-proliferation was performed according to the manufacturer's protocol (Invitrogen, Grand Island, N.Y.) and processed using a previously described modification. The modification consisted of 2.5×10^5 CFSE-labeled feline PBMC stimulated for 5 days (37° C., 5% CO2) with 4 μg/mL peptide in culture media (RPMI medium 25 µg/mL gentamycin, and 10% heat-inactivated fetal bovine serum (FBS)). Peptide pools consisted of 3-5 overlapping peptides of 4 μg/mL each. The antibodies used for flow cytometry based proliferation analysis consisted of murine anti-feline (Fe) CD3 monoclonal antibody (MAb clone kindly provided by Drs. Yorihiro Nishimura and Takayuki Miyazawa; described in [32]) combined with secondary goat anti-mouse IgG3-APC/CY7 MAb (SouthernBiotech, Birmingham, Ala.; Cat#1100-19); and murine anti-FeCD4-PE MAb (SouthernBiotech, Cat#8130-09); and murine anti-FeCD8 MAb (MAb clone kindly provided by Dr. Nazareth Gengozian, described in [33]) with secondary goat anti-mouse IgG2a-PE/CY7 (Southern Biotech, Cat#1080-17). The murine anti-B220-APC MAb for detecting feline B cells (SouthernBiotech, Cat#1665-11) and previously described MAbs for CFSE were used for FACS phenotyping. Both FACS phenotyping and CFSE-proliferation analyses were performed with BD LSRII and FACSDiva™ Software (BD Biosciences, San Jose, Calif.). The final value for each sample was derived after subtraction of the average value of the media controls using a positive threshold of ≥1 CFSE^low.
as §2
(§6) Carboxyfluorescein diacetate succinimide ester (CFSE)-proliferation analysis was according to the manufacturer's protocol (Invitrogen-Fisher, Carlsbad, Calif.) and processed as previously described (Roff et al. (2015)) using the following modifications: anti-feline CD3 antibody ((clone NZM1), a generous gift from T. Miyazawa (Univ. of Tokyo, Japan)) in combination with APC-conjugated anti-mouse IgG3 (Southern Biotech, Birmingham, Ala.), PE-conjugated anti-feline CD4 antibody (Southern Biotech), and anti-feline CD8 antibody (gift from N. Gengozian, University of Tennessee (Gengozian et al. (1997))) in combination with PE/Cy7-conjugated anti-mouse IgG2b (Southern Biotech) to detect the proliferation of feline CD3^+CD4+ T cells and feline […]. All results shown in the figures (FIGS. 7A-1, 7B-1, 7A-2, 7B-2, 7A-3, 7B-3) are after subtracting the average value of each results from all control cats. The threshold of CFSE proliferation is ≥0.5 CFSE^low. […]

[5] = test system: feline CD3^+CD4^+ T cells; assay: CFSE-based feline CD3+CD4+ T-cell proliferation; parameters: species or system cat; settings: FIV peptides; FIV-vaccinated cats
Procedure: as §5, §2, §6

Sequence: RAWYLEALGKLAAIKAK [Fp10-2/3, overlapping peptide of MAP6]
- IL2, frequency of responders [1]: +++ (40.1%-54% (+++))
- FIV Test E/S (enhancer/suppressor analysis) [2]: ↓
- IFNγ, frequency of responders [3]: — (0%-1.4%(—))
- CD8^+ T (T-cell proliferation), frequency of responders [4]: — (0%-1.4%(—))
- CDC4^+ T (T-cell proliferation), frequency of responders [5]: — (0%-1.4%(—))
